Measurements as given in BindingDB's records for doi:10.1016/j.bmcl.2008.02.015 (Deltagen Research Laboratories (Former Combichem), 2008).

Assay: Antagonist activity at human CCR2 in THP1 cells assessed as inhibition of MCP1-induced chemotaxis

| Structure (SMILES) | IC50 [nM] |
| --- | --- |
| O=C(CNC(=O)c1cccc(C(F)(F)F)c1)N[C@@H]1CCN(Cc2ccc(OC(F)(F)F)cc2)C1 | 103 |
| CSc1ccc(CN2CC[C@@H](NC(=O)CNC(=O)c3cccc(C(F)(F)F)c3)C2)cc1 | 21 |
| O=C(CNC(=O)c1cccc(C(F)(F)F)c1)N[C@@H]1CCN(Cc2ccccc2)C1 | 418 |
| COc1cc(CN2CC[C@@H](NC(=O)CNC(=O)c3cc(C(F)(F)F)ccc3N)C2)ccc1O | 14 |
| COc1ccc(CN2CC[C@@H](NC(=O)CNC(=O)c3cc(C(F)(F)F)ccc3N)C2)cc1N | 8.8 |
| COc1ccc(CN2CC[C@@H](NC(=O)CNC(=O)c3cc(C(F)(F)F)ccc3N)C2)cc1 | 11 |
| Nc1ccc(C(F)(F)F)cc1C(=O)NCC(=O)N[C@@H]1CCN(Cc2ccc(Br)cc2)C1 | 2.6 |
| Nc1ccc(I)cc1C(=O)NCC(=O)N[C@@H]1CCN(Cc2ccc(Cl)cc2)C1 | 22 |
| Cc1ccc(CN2CC[C@@H](NC(=O)CNC(=O)c3cc(C(F)(F)F)ccc3N)C2)cc1N | 12 |
| Nc1cc(CN2CC[C@@H](NC(=O)CNC(=O)c3cc(C(F)(F)F)ccc3N)C2)ccc1Cl | 11 |
| Nc1ccc(C(F)(F)F)cc1C(=O)NCC(=O)N[C@@H]1CCN(Cc2ccc(O)cc2)C1 | 5.1 |
| C=Cc1ccc(CN2CC[C@@H](NC(=O)CNC(=O)c3cc(C(F)(F)F)ccc3N)C2)cc1 | 3.9 |
| CCc1ccc(CN2CC[C@@H](NC(=O)CNC(=O)c3cc(C(F)(F)F)ccc3N)C2)cc1 | 0.89 |
| Cc1ccc(CN2CC[C@@H](NC(=O)CNC(=O)c3cc(C(F)(F)F)ccc3N)C2)cc1 | 3.1 |
| Nc1ccc(C(F)(F)F)cc1C(=O)NCC(=O)N[C@@H]1CCN(Cc2ccc(Cl)cc2)C1 | 3.6 |
| Cc1ccc(CN2CC[C@@H](NC(=O)CNC(=O)c3cccc(C(F)(F)F)c3)C2)cc1 | 12.4 |
| Nc1ccc(OC(F)(F)F)cc1C(=O)NCC(=O)N[C@@H]1CCN(Cc2ccc(Cl)cc2)C1 | 43 |
| Nc1ccc([N+](=O)[O-])cc1C(=O)NCC(=O)N[C@@H]1CCN(Cc2ccc(Cl)cc2)C1 | 43 |
| O=C(CNC(=O)c1cccc([N+](=O)[O-])c1)N[C@@H]1CCN(Cc2ccc(Cl)cc2)C1 | 445 |

| Structure (SMILES) | IC50 [nM] |
| --- | --- |
| O=C(CNC(=O)c1cccc(OC(F)(F)F)c1)N[C@@H]1CCN(Cc2ccc(Cl)cc2)C1 | 360 |
| O=C(CNC(=O)c1cccc(Br)c1)N[C@@H]1CCN(Cc2ccc(Cl)cc2)C1 | 473 |
| O=C(CNC(=O)c1cccc(C(F)(F)F)c1)N[C@@H]1CCN(Cc2ccccc2-c2ccc3ccccc3c2)C1 | 74 |
| COc1cc(CN2CC[C@@H](NC(=O)CNC(=O)c3cccc(C(F)(F)F)c3)C2)ccc1O | 77 |
| O=C(CNC(=O)c1cccc(C(F)(F)F)c1)N[C@@H]1CCN(Cc2ccc(F)cc2)C1 | 121 |
| O=C(CNC(=O)c1cccc(C(F)(F)F)c1)N[C@@H]1CCN(Cc2ccc(O)cc2)C1 | 5.5 |
| C=Cc1ccc(CN2CC[C@@H](NC(=O)CNC(=O)c3cccc(C(F)(F)F)c3)C2)cc1 | 6.2 |
| O=C(CNC(=O)c1cccc(C(F)(F)F)c1)N[C@@H]1CCN(Cc2ccc(Br)cc2)C1 | 21 |
| CCc1ccc(CN2CC[C@@H](NC(=O)CNC(=O)c3cccc(C(F)(F)F)c3)C2)cc1 | 9.4 |
| COc1ccc(CN2CC[C@@H](NC(=O)CNC(=O)c3cccc(C(F)(F)F)c3)C2)cc1 | 35 |
| Cc1ccccc1CN1CC[C@@H](NC(=O)CNC(=O)c2cccc(C(F)(F)F)c2)C1 | 127 |
| O=C(CNC(=O)c1cccc(C(F)(F)F)c1)N[C@@H]1CCN(Cc2ccccc2Cl)C1 | 418 |
| Cc1ccc(CN2CC[C@@H](NC(=O)CNC(=O)c3cc(C(F)(F)F)ccc3N)C2)c(C)c1 | 0.83 |
| O=C(CCNC(=O)c1cccc(C(F)(F)F)c1)N[C@@H]1CCN(Cc2ccc(Cl)cc2)C1 | 10000 |
| CC(NC(=O)c1cccc(C(F)(F)F)c1)C(=O)N[C@@H]1CCN(Cc2ccc(Cl)cc2)C1 (stereo partly drawn) | 22000 |
| COc1ccc(CN2CC[C@@H](NC(=O)CNC(=O)c3cc(C(F)(F)F)ccc3N)C2)cc1O | 9.2 |
| Nc1cc(CN2CC[C@@H](NC(=O)CNC(=O)c3cc(C(F)(F)F)ccc3N)C2)ccc1O | 18 |
| Cc1ccc(CN2CC[C@@H](NC(=O)CNC(=O)c3cccc(C(F)(F)F)c3)C2)c(C)c1 [(R)-N-(2-(1-(2,4-dimethylbenzyl)pyrrolidin-3-ylamino)-2-oxoethyl)-3-(trifluoromethyl)benzamide] | 16 |
| O=C(CNC(=O)c1cccc(C(F)(F)F)c1)N[C@@H]1CCN(Cc2ccc(Cl)cc2)C1 [(R)-N-(2-(1-(4-chlorobenzyl)pyrrolidin-3-ylamino)-2-oxoethyl)-3-(trifluoromethyl)benzamide] | 24 |
